# Results published in patent US9701670B2, “Pyrazolyl-ureas as kinase inhibitors” (RESPIVERT LIMITED, priority 2013, dated 2017).
# Key:
# [1] = target: T1, p38 MAPKα isoform (MAPK14) (Homo sapiens (Human), UniProt Q16539); experiment: p38 MAPKα enzyme inhibition (FRET, Z-LYTE), Method 2; format: biochemical; details: Method 2, different laboratory (Table 4a2)
# Description: The enzyme inhibitory activities of compounds disclosed herein are determined by FRET using synthetic peptides labelled with both donor and acceptor fluorophores (Z-LYTE, Invitrogen Ltd., Paisley, UK).
# The inhibitory activities of test compounds against the p38 MAPKα isoform (MAPK14: Invitrogen), are evaluated indirectly by determining the level of activation/phosphorylation of the down-stream molecule, MAPKAP-K2. The p38 MAPKα protein (80 ng/mL, 2.5 μL) is mixed with the test compound (2.5 μL of either 4 μg/mL, 0.4 μg/mL, 0.04 μg/mL or 0.004 μg/mL) for 2 hr at RT. […] The mixture is incubated for 1 hr at RT. Development reagent (protease, 5 μL) is added for 1 hr prior to detection in a fluorescence microplate reader (Varioskan® Flash, ThermoFisher Scientific).
# In all cases, the site-specific protease cleaves non-phosphorylated peptide only and eliminates the FRET signal. Phosphorylation levels of each reaction are calculated using the ratio of coumarin emission (donor) over fluorescein emission (acceptor), for which high ratios indicate high phosphorylation and low ratios indicate low phosphorylation levels.
# [2] = system: β-catenin in d-U937 cells; experiment: (m) Accumulation of β catenin in d-U937 cells; format: cell-based, human
# Description: U937 cells, a human monocytic cell line, are differentiated into macrophage-type cells by incubation with PMA; (100 ng/mL) for between 48 to 72 hr. The cells are then incubated with either final concentrations of test compound or vehicle for 18 hr. The induction of β-catenin by the test compounds is stopped by replacing the media with 4% formaldehyde solution. Endogenous peroxide activity is neutralised by incubating with quenching buffer (100 μL, 0.1% sodium azide, 1% H2O2 in PBS with 0.05% Tween-20) for 20 min. The cells are washed with washing buffer (200 μL; PBS containing 0.05% Tween-20) and incubated with blocking solution (200 μL; 5% milk in PBS) for 1 hr, re-washed with washing buffer (200 μL) and then incubated overnight with anti-β-catenin antibody solution (50 μL) in 1% BSA/PBS (BD, Oxford, UK).
# After washing with washing buffer (3×200 μL; PBS containing 0.05% Tween-20), cells are incubated with an HRP-conjugated secondary antibody solution (100 μL) in 1% BSA/PBS (Dako, Cambridge, UK) and the resultant signal is determined colourimetrically (OD: 450 nm with a reference wavelength of 655 nm) using TMB substrate (50 μL; R&D Systems, Abingdon, UK). This reaction is stopped by addition of 1N H2SO4 solution (50 μL). Cells are then washed with washing buffer and 2% crystal violet solution (50 μL) is applied for 30 min. After washing with washing buffer (3×200 μL), 1% SDS (100 μL) is added to each well and the plates are shaken lightly for 1 hr prior to measuring the absorbance at 595 nm (Varioskan® Flash, Thermo-Fisher Scientific).
# The measured OD450-655 readings are corrected for cell number by dividing the OD450-655 by the OD595 readings. […] A signal less than 0.15 (15%) of that observed for the standard control is designated as “-ve”.
# mice = experiment: Mouse cigarette smoke model (macrophage and neutrophil accumulation in BALF); format: in vivo; details: cigarette smoke model, 1.75 μg/mouse (35 μL, bid, i.n.)
# From the text: The result of treatment with compound Example (8) on macrophage and neutrophil accumulation in BALF in the mouse cigarette smoke model was investigated (Table 5).
# Balb/c mice = experiment: (A) LPS-induced neutrophil accumulation in mice; format: in vivo, mouse; details: 1.75 μg/mouse
# Description: […] At T=0, mice are placed into an exposure chamber and exposed to LPS (7.0 mL, 0.5 mg/mL solution in PBS) for 30 min). After a further 8 hr the animals are anesthetized, their tracheas cannulated and BALF extracted by infusing and then withdrawing from their lungs 1.0 mL of PBS via the tracheal catheter. Total and differential white cell counts in the BALF samples are measured using a Neubaur haemocytometer. Cytospin smears of the BALF samples are prepared by centrifugation at 200 rpm for 5 min at RT and stained using a DiffQuik stain system (Dade Behring). Cells are counted using oil immersion microscopy. Data for neutrophil numbers in BAL are shown as mean±S.E.M. (standard error of the mean). The percentage inhibition of neutrophil accumulation is calculated for each treatment relative to vehicle treatment.
# [3] = system: Differentiated U937 cells; experiment: (l) Cell viability: MTT assay; format: cell-based, human; details: 1 μg/mL
# In short: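 Differentiated U937 cells were exposed to compound at 1 or 10 μg/mL either 4 h in 5% FCS RPMI1640 or 24 h in 10% FCS RPMI1640, then given MTT for 1 h, DMSO-solubilised and read at 550 nm. Percent viability loss versus 0.5% DMSO vehicle; apparent gains appear negative.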
# [4] = target: T1, p38 MAPKα isoform (MAPK14); experiment: p38 MAPKα enzyme inhibition (FRET, Z-LYTE), Method 1; format: biochemical; details: Method 1 (Table 4a1)
# T1 sequence (Q16539 whole entry, canonical isoform): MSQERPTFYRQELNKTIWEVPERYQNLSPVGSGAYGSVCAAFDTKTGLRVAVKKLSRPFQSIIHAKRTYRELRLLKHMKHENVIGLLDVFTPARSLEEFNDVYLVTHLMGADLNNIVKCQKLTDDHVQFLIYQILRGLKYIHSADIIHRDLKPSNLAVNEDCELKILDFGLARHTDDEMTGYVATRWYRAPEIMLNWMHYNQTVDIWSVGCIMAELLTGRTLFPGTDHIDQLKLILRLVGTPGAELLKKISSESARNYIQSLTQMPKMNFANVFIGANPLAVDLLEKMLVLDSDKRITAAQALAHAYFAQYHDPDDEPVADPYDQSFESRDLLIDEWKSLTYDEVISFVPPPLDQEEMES
smiles,measurement,setting,value
"C#Cc1cc(Nc2nccc(Oc3ccc(NC(=O)Nc4cc(C(C)C)nn4-c4ccc(C)cc4)c(Cl)c3Cl)n2)cc(C(=O)NCCN2CCOCC2)c1 [Example 87, 3-((4-(2,3-Dichloro-4-(3-(3-isopropyl-1-(p-tolyl)-1H-pyrazol-5-yl)ureido)-phenoxy)pyrimidin-2-yl)amino)-5-ethynyl-N-(2-morpholinoethyl)benzamide]",IC50,[1],408 nM
"C#Cc1cc(Nc2nccc(Oc3ccc(NC(=O)Nc4cc(C(C)(C)C#N)nn4-c4ccc(C)cc4)c4ccccc34)n2)cc(C(=O)NCCN2CCOCC2)c1 [Example 78, 3-((4-((4-(3-(3-(2-Cyanopropan-2-yl)-1-(p-tolyl)-1H-pyrazol-5-yl)ureido)-naphthalen-1-yl)oxy)pyrimidin-2-yl)amino)-5-ethynyl-N-(2-morpholinoethyl)benzamide]",% β-catenin induction,[2]; 1 μg/mL test compound,9%
same,% β-catenin induction,[2]; 5 μg/mL test compound,0%
"C#Cc1cc(Nc2nccc(Oc3ccc(NC(=O)Nc4cc(C(C)(C)C)nn4-c4ccc(OC)cc4)c4ccccc34)n2)cc(C(=O)N[C@@H](C)COC)c1 [Example 85, (S)-3-((4-((4-(3-(3-(tert-Butyl)-1-(4-methoxyphenyl)-1H-pyrazol-5-yl)ureido)-naphthalen-1-yl)oxy)pyrimidin-2-yl)amino)-5-ethynyl-N-(1-methoxypropan-2-yl)-benzamide]",IC50,[1],158 nM
same,% β-catenin induction,[2]; 1 μg/mL test compound,7%
same,% β-catenin induction,[2]; 5 μg/mL test compound,3%
same,% β-catenin induction,[2]; 10 μg/mL test compound,6%
"C#Cc1cc(Nc2nccc(Oc3ccc(NC(=O)Nc4cc(C(C)(C)C)nn4-c4ccc(C)cc4)c4ccccc34)n2)cc(C(=O)NC(C)(C)CN2CCOCC2)c1 [Example 82, 3-((4-((4-(3-(3-(tert-Butyl)-1-(p-tolyl)-1H-pyrazol-5-yl)ureido)naphthalen-1-yl)oxy)pyrimidin-2-yl)amino)-5-ethynyl-N-(2-methyl-1-morpholinopropan-2-yl)-benzamide]",% β-catenin induction,[2]; 1 μg/mL test compound,0%
same,% β-catenin induction,[2]; 5 μg/mL test compound,9%
"CCC(=O)O[C@]1(C(=O)SCF)[C@H](C)C[C@H]2[C@@H]3C[C@H](F)C4=CC(=O)C=C[C@]4(C)[C@@]3(F)[C@@H](O)C[C@@]21C [fluticasone propionate, reference compound]",inhibition of neutrophil or macrophage accumulation into airways,mice,did not inhibit
same,inhibition of LPS-induced neutrophil accumulation,Balb/c mice,> 80%
"C#Cc1cc(Nc2nccc(Oc3ccc(NC(=O)Nc4cc(C(C)(C)C)nn4-c4ccc(C)cc4)c4ccccc34)n2)cc(C(=O)NCCN2CCOCC2)c1 [Example 75, 3-((4-((4-(3-(3-(tert-Butyl)-1-(p-tolyl)-1H-pyrazol-5-yl)ureido)naphthalen-1-yl)oxy)pyrimidin-2-yl)amino)-5-ethynyl-N-(2-morpholinoethyl)benzamide]",IC50,[1],49 nM
same,% β-catenin induction,[2]; 1 μg/mL test compound,−14%
same,% β-catenin induction,[2]; 5 μg/mL test compound,−10%
"C=C(C)c1cc(NC(=O)Nc2ccc(Oc3ccnc(Nc4cc(OC)cc(C(=O)NCCN5CCOCC5)c4)n3)c3ccccc23)n(-c2ccc(OC)cc2)n1 [Example 86, 3-Methoxy-5-((4-((4-(3-(1-(4-methoxyphenyl)-3-(prop-1-en-2-yl)-1H-pyrazol-5-yl)ureido)naphthalen-1-yl)oxy)pyrimidin-2-yl)amino)-N-(2-morpholinoethyl)-benzamide]",Cell viability at time point in d-U937 cells 4 h,[3],"−ve (−ve and +ve indicate that the value is below and above respectively, the no significant effect threshold, defined as 30% inhibition at 1 μg/mL at the time point indicated.)"
same,Cell viability at time point in d-U937 cells 24 h,[3],"−ve (−ve and +ve indicate that the value is below and above respectively, the no significant effect threshold, defined as 30% inhibition at 1 μg/mL at the time point indicated.)"
same,IC50,[4],10 nM
same,β-catenin inductive effect relative to the effect produced by the Reference Compound at 1 μg/mL,"[2]; test concentration of 10 μg/mL, found to be negative",less than 15%
"COc1cc(C(=O)NCCO)ccc1Nc1nccc(Oc2ccc(NC(=O)Nc3cc(C(C)C)nn3-c3ccc(C)cc3)c3ccccc23)n1 [Example 39, N-(2-hydroxyethyl)-4-((4-((4-(3-(3-isopropyl-1-(p-tolyl)-1H-pyrazol-5-yl)ureido)naphthalen-1-yl)oxy)pyrimidin-2-yl)amino)-3-methoxybenzamide]",Cell viability at time point in d-U937 cells 4 h,[3],"−ve (−ve and +ve indicate that the value is below and above respectively, the no significant effect threshold, defined as 30% inhibition at 1 μg/mL at the time point indicated.)"
same,Cell viability at time point in d-U937 cells 24 h,[3],"−ve (−ve and +ve indicate that the value is below and above respectively, the no significant effect threshold, defined as 30% inhibition at 1 μg/mL at the time point indicated.)"
same,IC50,[4],7 nM
"COc1ccc(C(=O)NCCO)cc1Nc1nccc(Oc2ccc(NC(=O)Nc3cc(C(C)(C)C)nn3-c3ccc(C)cc3)c3ccccc23)n1 [Example 33, 3-((4-((4-(3-(3-(tert-butyl)-1-(p-tolyl)-1H-pyrazol-5-yl)ureido)naphthalen-1-yl)oxy)pyrimidin-2-yl)amino)-N-(2-hydroxyethyl)-4-methoxybenzamide]",Cell viability at time point in d-U937 cells 4 h,[3],"−ve (−ve and +ve indicate that the value is below and above respectively, the no significant effect threshold, defined as 30% inhibition at 1 μg/mL at the time point indicated.)"
same,Cell viability at time point in d-U937 cells 24 h,[3],"−ve (−ve and +ve indicate that the value is below and above respectively, the no significant effect threshold, defined as 30% inhibition at 1 μg/mL at the time point indicated.)"
same,IC50,[4],4 nM
"COc1ccc(C(=O)NCCN2CCOCC2)cc1Nc1nccc(Oc2ccc(NC(=O)Nc3cc(C(C)C)nn3-c3ccc(C)cc3)c3ccccc23)n1 [Example 30, 3-((4-((4-(3-(3-isopropyl-1-(p-tolyl)-1H-pyrazol-5-yl)ureido)naphthalen-1-yl)oxy)pyrimidin-2-yl)amino)-4-methoxy-N-(2-morpholinoethyl)benzamide]",Cell viability at time point in d-U937 cells 4 h,[3],"−ve (−ve and +ve indicate that the value is below and above respectively, the no significant effect threshold, defined as 30% inhibition at 1 μg/mL at the time point indicated.)"
same,Cell viability at time point in d-U937 cells 24 h,[3],"−ve (−ve and +ve indicate that the value is below and above respectively, the no significant effect threshold, defined as 30% inhibition at 1 μg/mL at the time point indicated.)"
same,IC50,[4],3 nM
"COc1ccc(-n2nc(C(C)C)cc2NC(=O)Nc2ccc(Oc3ccnc(Nc4cc(Cl)cc(C(=O)NCCN5CCOCC5)c4)n3)c3ccccc23)cc1 [Example 61, 3-chloro-5-((4-((4-(3-(3-isopropyl-1-(4-methoxyphenyl)-1H-pyrazol-5-yl)ureido)naphthalen-1-yl)oxy)pyrimidin-2-yl)amino)-N-(2-morpholinoethyl)benzamide]",Cell viability at time point in d-U937 cells 4 h,[3],"−ve (−ve and +ve indicate that the value is below and above respectively, the no significant effect threshold, defined as 30% inhibition at 1 μg/mL at the time point indicated.)"
same,Cell viability at time point in d-U937 cells 24 h,[3],"−ve (−ve and +ve indicate that the value is below and above respectively, the no significant effect threshold, defined as 30% inhibition at 1 μg/mL at the time point indicated.)"
same,IC50,[4],20 nM
